The structures appear in SMILES notation. Counter-ions that a name gives are not always drawn.

The assay concerns the target T1, HIV integrase (Human immunodeficiency virus type 1 group M subtype B, UniProt P12497, F1332H).
T1 construct: HIV integrase full length gene (J. Virol., 67, 425-437 (1993)) in which phenylalanine at codon 185 was substituted by histidine; made in house; host or cells: Escherichia coli BL21(DE3)
As to the kind of experiment: Determination of enzyme (HIV integrase) inhibitory activity. The class given is biochemical. To be noted: recombinant integrase protein (F185H), donor DNA/target DNA, absorbance at 450 nm. The method, then:
HIV integrase full length gene (J. Virol., 67, 425-437 (1993)) in which phenylalanine at codon 185 was substituted by histidine, was inserted between the restriction enzyme NdeI and XhoI sites of plasmid pET21a(+) (Novagen), whereby an integrase expression vector pET21a-IN-F185H was constructed.
Escherichia coli recombinant BL21(DE3) transformed with plasmid pET21a-IN-F185H obtained in (i) was shake cultured at 30° C. in a liquid medium containing ampicillin. When the culture reached the logarithmic growth phase, isopropyl-β-D-thiogalactopyranoside was added to promote expression of integrase gene. The culture was continued for 3 hr to promote accumulation of the integrase protein. The recombinant E. coli was collected in pellets by centrifugal separation and preserved at −80° C.
The E. coli was suspended in Lysis buffer (20 mM HEPES (pH 7.5), 5 mM DTT, 10 mM CHAPS, 10% glycerol) containing 1M sodium chloride and subjected to repeat pressurization and depressurization for rupture, and centrifugal separation at 4° C., 40,000×g, 60 min to recover a water-soluble fraction (supernatant). This was diluted 10-fold with Lysis buffer free of sodium chloride, mixed with SP-Sepharose (Pharmacia Corporation) and stirred at 4° C. for 60 min to allow adsorption of integrase protein to the resin. The resin was washed with Lysis buffer containing 100 mM sodium chloride and the integrase protein was eluted with Lysis buffer containing 1M sodium chloride.
The eluted integrase protein solution was subjected to a Superdex 75 (Pharmacia Corporation) column for gel filtration. The protein was eluted with Lysis buffer containing 1M sodium chloride.
The obtained fractions of the integrase protein were collected and preserved at −80° C.
The following DNA synthesized by Greiner was dissolved in TE buffer (10 mM Tris-hydrochloric acid (pH 8.0), 1 mM EDTA) and mixed with donor DNA, target DNA, and each complementary strand (+ and − strands) to 1 μM. The mixture was heated at 95° C. for 5 min, 80° C. for 10 min, 70° C. for 10 min, 60° C. for 10 min, 50° C. for 10 min and 40° C. for 10 min and kept at 25° C. to give a double stranded DNA, which was used for the test. Donor DNA ([…] attached to the 5′ terminal) Donor + strand: 5′-Biotin-ACCCTTTTAGTCAGTGTGGAAAATCTCTAGCA-3′ (SEQ ID NO:1) Donor − strand: 5′-ACTGCTAGAGATTTTCCACACTGACTAAAAG-3′ (SEQ ID NO:2) Target DNA (+, − strands both having digoxigenin added at 3′ terminal) Target + strand: 5′-TGACCAAGGGCTAATTCACT-Dig-3′ (SEQ ID NO:3) Target − strand: 5′-AGTGAATTAGCCCTTGGTCA-Dig-3′ (SEQ ID NO:4)
The donor DNA was diluted with TE buffer to 10 nM, of which 50 μl was added to each well of streptavidin-coated microtiter plate (Roche) and allowed to adsorb at 37° C. for 60 min. The plate was washed with phosphate buffer (Dulbecco's PBS, Sanko Junyaku Co., Ltd.) containing 0.1% Tween 20 and phosphate buffer. Then, an enzyme reaction mixture (70 μl), a test substance (10 μl) diluted with the reaction mixture and 100 μg/ml integrase protein (10 μl) were added to each well and reacted at 37° C. for 60 min.
Then, 50 nM target DNA (10 μl) was added, reacted at 37° C. for 10 min and washed with phosphate buffer containing 0.1% Tween 20 to stop the reaction.
Then, 100 mU/ml peroxidase labeled anti-digoxigenin antibody solution (Roche, 100 μl) was added, and the mixture was reacted at 37° C. for 60 min, followed by washing with phosphate buffer containing 0.1% Tween 20.
A peroxidase color solution (Bio Rad, 100 μl) was added and allowed to react at room temperature for 4 min. The color reaction was stopped by adding 1N sulfuric acid (100 μl). The absorbance at 450 nm was measured.
The HIV integrase inhibitory activity (IC50) of the compound of the present invention was calculated from the inhibition rate according to the following formula. […]
With `CC(C)[C@@H](CO)n1cc(C(=O)O)c(=O)c2cc(Cc3cccc(Cl)c3F)c(OCCN)cc21` [Example 4-18, 7-(2-aminoethoxy)-6-(3-chloro-2-fluorobenzyl)-1-((1S)-1-(hydroxymethyl)-2-methylpropyl)-4-oxo-1,4-dihydroquinoline-3-carboxylic acid hydrochloride], the IC50 (in general, the concentration at which inhibition is half-maximal) worked out at 4.8 nM.
For the compound `CC(=O)N[C@H]1CCN(c2cc3c(cc2Cc2cccc(Cl)c2F)c(=O)c(C(=O)O)cn3[C@H](CO)C(C)C)C1` [Example 4-26, 7-((3S)-3-(acetylamino)pyrrolidin-1-yl)-6-(3-chloro-2-fluorobenzyl)-1-((1S)-1-(hydroxymethyl)-2-methylpropyl)-4-oxo-1,4-dihydroquinoline-3-carboxylic acid], the IC50 amounted to 9.2 nM.
On to `COc1cc2c(cc1Cc1c(F)ccc(Cl)c1F)c(=O)c(C(=O)O)cn2[C@H](CO)C(C)C` [Example 1-2, 6-(3-chloro-2,6-difluorobenzyl)-1-((1S)-1-(hydroxymethyl)-2-methylpropyl)-7-methoxy-4-oxo-1,4-dihydroquinoline-3-carboxylic acid], for which the IC50 turned out to be 3.8 nM.
As to `COc1cc2c(cc1C(O)c1cccc(Cl)c1F)c(=O)c(C(=O)O)cn2[C@H](CO)C(C)C` (single isomer, unassigned) [Example 7-8], the IC50 turned out to be 39 nM.
With `CC(C)([C@@H](CO)n1cc(C(=O)O)c(=O)c2cc(Cc3cccc(Cl)c3F)ccc21)S(C)(=O)=O` [Example 2-10, 6-(3-chloro-2-fluorobenzyl)-1-((1R)-1-(hydroxymethyl)-2-mesyl-2-methylpropyl)-4-oxo-1,4-dihydroquinoline-3-carboxylic acid] the figure was 4.2 nM; with `COCCCCOc1cc(Cc2cccc(Cl)c2F)cc2c(=O)c(C(=O)O)cn([C@H](CO)C(C)C)c12` [Example 3-8, 6-(3-chloro-2-fluorobenzyl)-1-((1S)-1-(hydroxymethyl)-2-methylpropyl)-8-(4-methoxybutoxy)-4-oxo-1,4-dihydroquinoline-3-carboxylic acid], 4 nM.
For the compound `CC(C)[C@@H](CO)n1cc(C(=O)O)c(=O)c2cc(Cc3cccc(Cl)c3F)c(OCCCN)cc21` [Example 4-19, 7-(3-aminopropoxy)-6-(3-chloro-2-fluorobenzyl)-1-((1S)-1-(hydroxymethyl)-2-methylpropyl)-4-oxo-1,4-dihydroquinoline-3-carboxylic acid hydrochloride], the IC50 amounted to 4.6 nM.
With `CC(=O)NCCOc1cc2c(cc1Cc1cccc(Cl)c1F)c(=O)c(C(=O)O)cn2[C@H](CO)C(C)C` [Example 4-41, 7-(2-(acetylamino)ethoxy)-6-(3-chloro-2-fluorobenzyl)-1-((1S)-1-(hydroxymethyl)-2-methylpropyl)-4-oxo-1,4-dihydroquinoline-3-carboxylic acid] the figure was 4.5 nM; with `CCc1cc2c(cc1Cc1cccc(Cl)c1F)c(=O)c(C(=O)O)cn2[C@H](CO)C(C)C` [Example 4-4, 6-(3-chloro-2-fluorobenzyl)-7-ethyl-1-((1S)-1-(hydroxymethyl)-2-methylpropyl)-4-oxo-1,4-dihydroquinoline-3-carboxylic acid], 4.7 nM.
With `CC(C)[C@@H](CO)n1cc(C(=O)O)c(=O)c2cc(Cc3cccc(Cl)c3F)c(OC3CCN(C)CC3)cc21` [Example 4-14, 6-(3-chloro-2-fluorobenzyl)-1-((1S)-1-(hydroxymethyl)-2-methylpropyl)-7-(1-methylpiperidin-4-yloxy)-4-oxo-1,4-dihydroquinoline-3-carboxylic acid] the figure was 5.4 nM; with `CC(C)[C@@H](CO)n1cc(C(=O)O)c(=O)c2cc(Cc3cccc(Cl)c3F)c(OCC(F)(F)F)cc21` [Example 4-62, 6-(3-chloro-2-fluorobenzyl)-1-((1S)-1-(hydroxymethyl)-2-methylpropyl)-4-oxo-7-(2,2,2-trifluoroethyloxy)-1,4-dihydroquinoline-3-carboxylic acid], 5.5 nM; with `COc1cc2c(cc1Cc1cc(F)c(F)c(Cl)c1F)c(=O)c(C(=O)O)cn2[C@H](CO)C(C)C` [Example 1-7, 6-(3-chloro-2,4,5-trifluorobenzyl)-1-((1S)-1-(hydroxymethyl)-2-methylpropyl)-7-methoxy-4-oxo-1,4-dihydroquinoline-3-carboxylic acid], 5.5 nM.
With `CC(C)[C@@H](CO)n1cc(C(=O)O)c(=O)c2cc(Cc3cccc(Cl)c3F)c(O[C@H]3CCNC3)cc21` [Example 4-46, 6-(3-chloro-2-fluorobenzyl)-1-((1S)-1-(hydroxymethyl)-2-methylpropyl)-4-oxo-7-((3S)-pyrrolidin-3-yloxy)-1,4-dihydroquinoline-3-carboxylic acid hydrochloride], the IC50 is 6.8 nM.
Take `CC(C)[C@@H](CO)n1cc(C(=O)O)c(=O)c2cc(Cc3cccc(Cl)c3F)c(OCCN3CCOCC3)cc21` [Example 4-16, 6-(3-chloro-2-fluorobenzyl)-1-((1S)-1-(hydroxymethyl)-2-methylpropyl)-7-(2-(morpholin-4-yl)ethoxy)-4-oxo-1,4-dihydroquinoline-3-carboxylic acid]: the IC50 stood at 7.9 nM.
`COC[C@@H](CO)n1cc(C(=O)O)c(=O)c2cc(Cc3cccc(Cl)c3F)ccc21` [Example 2-14, 6-(3-chloro-2-fluorobenzyl)-1-((1R)-1-(hydroxymethyl)-2-methoxyethyl)-4-oxo-1,4-dihydroquinoline-3-carboxylic acid]: the IC50 came to 13 nM.
As to `CC(C)[C@@H](CO)n1cc(C(=O)O)c(=O)c2cc(Cc3cccc(Cl)c3F)cc(OCCCCO)c21` [Example 3-3, 6-(3-chloro-2-fluorobenzyl)-8-(4-hydroxybutoxy)-1-((1S)-1-(hydroxymethyl)-2-methylpropyl)-4-oxo-1,4-dihydroquinoline-3-carboxylic acid], the IC50 is 6.3 nM.
For `CC(C)[C@@H](CO)n1cc(C(=O)O)c(=O)c2cc(Cc3cccc(Cl)c3F)c(O[C@@H]3CCNC3)cc21` [Example 4-37, 6-(3-chloro-2-fluorobenzyl)-1-((1S)-1-(hydroxymethyl)-2-methylpropyl)-4-oxo-7-((3R)-pyrrolidin-3-yloxy)-1,4-dihydroquinoline-3-carboxylic acid hydrochloride] the value was 4.4 nM; for `CC(C)[C@@H](CO)n1cc(C(=O)O)c(=O)c2cc(Cc3cccc(Cl)c3F)c(OCc3ccc(S(N)(=O)=O)cc3)cc21` [Example 4-63, 7-(4-(aminosulfonyl)benzyloxy)-6-(3-chloro-2-fluorobenzyl)-1-((1S)-1-(hydroxymethyl)-2-methylpropyl)-4-oxo-1,4-dihydroquinoline-3-carboxylic acid], 3.6 nM; for `CC(C)[C@@H](CO)n1cc(C(=O)O)c(=O)c2cc(Cc3cccc(Cl)c3F)c(OCc3ccc(C#N)cc3)cc21` [Example 4-56, 6-(3-chloro-2-fluorobenzyl)-7-(4-cyanobenzyloxy)-1-((1S)-1-(hydroxymethyl)-2-methylpropyl)-4-oxo-1,4-dihydroquinoline-3-carboxylic acid], 5 nM.
For `CS(=O)(=O)C[C@@H](CO)n1cc(C(=O)O)c(=O)c2cc(Cc3cccc(Cl)c3F)ccc21` [Example 2-8, 6-(3-chloro-2-fluorobenzyl)-1-((1R)-1-(hydroxymethyl)-2-mesylethyl)-4-oxo-1,4-dihydroquinoline-3-carboxylic acid] the value was 20 nM.

These data come from patent publication US7531554B2, “4-oxoquinoline compound and use thereof as HIV integrase inhibitor” (Japan Tobacco Inc., priority 2004, dated 2009).
